Columns and labels:
Assay type in all cases: in vivo, mouse
[1] = Liver enzyme levels, lean vs high fat fed C57BL/6 mice; conditions: for Liver Enzymes ALT Percent Change / Liver Enzymes AST Percent Change: 50 mg/kg i.p. every three days, six weeks
Description: Male C57BL/6 mice were divided into two matched groups; (1) wild-type control animals (lean animals) and (2) animals receiving a high fat diet (60% kcal fat). Control animals received saline treatment and were maintained on a normal rodent diet. After overnight fasting, mice from each group were dosed intraperitoneally every three days with saline or 50 mg/kg ISIS 147764 (SEQ ID No: 109) for six weeks. At study termination and forty eight hours after the final injections, animals were sacrificed and evaluated for target mRNA levels in liver, cholesterol and triglyceride levels, liver enzyme levels and serum glucose levels.

apolipoprotein B mRNA = assay: Target mRNA levels in liver, high fat fed mice, 6 week timecourse study; conditions: high fat fed C57BL/6 mice, six weeks
Description: (§1) Male C57BL/6 mice (n=8) receiving a high fat diet (60% kcal fat) were evaluated over the course of 6 weeks for the effects of treatment with the antisense oligonucleotide, ISIS 147764. Control animals received saline treatment (50 mg/kg). A subset of animals received a daily oral dose (20 mg/kg) atorvastatin calcium (Lipitor®, Pfizer Inc.). All mice, except atorvastatin-treated animals, were dosed intraperitoneally every three days (twice a week), after fasting overnight, with 5, 25, 50 mg/kg ISIS 147764 (SEQ ID No: 109) or saline (50 mg/kg) for six weeks. Serum cholesterol and lipoproteins were analyzed at 0, 2 and 6 week interim timepoints. At study termination, animals were sacrificed 48 hours after the final injections and evaluated for levels of target mRNA levels in liver, cholesterol, lipoprotein, triglyceride, liver enzyme (AST and ALT) and serum glucose levels as well as body, liver, spleen and fat pad weights.
Male C57BL/6 mice (n=8) receiving a high fat diet (60% kcal fat) were evaluated over the course of 6 weeks for the effects of ISIS 147764 on mRNA expression. Control animals received saline treatment (50 mg/kg). Mice were dosed intraperitoneally every three days (twice a week), after fasting overnight, with 5, 25, 50 mg/kg ISIS 147764 (SEQ ID No: 109) or saline (50 mg/kg) for six weeks. At study termination, animals were sacrificed 48 hours after the final injections and evaluated for levels of target mRNA levels in liver.

[2] = Serum cholesterol and triglyceride levels, high fat fed mice, 6 week study; conditions: for Percent Inhibition of cholesterol levels: normalized to saline; for triglycerides / serum cholesterol: study end; for triglycerides: control 115 mg/dL; for serum cholesterol: control 240 mg/dL
Description: as §1
Male C57BL/6 mice (n=8) receiving a high fat diet (60% kcal fat) were evaluated over the course of 6 weeks for the effects of ISIS 147764 on serum cholesterol and triglyceride levels. Control animals received saline treatment (50 mg/kg). Mice were dosed intraperitoneally every three days (twice a week), after fasting overnight, with 5, 25, 50 mg/kg ISIS 147764 (SEQ ID No: 109) or saline (50 mg/kg) for six weeks.
Values in the table are expressed as percent inhibition and are normalized to the saline control.
In addition to serum cholesterol, at study termination, animals were sacrificed 48 hours after the final injections and evaluated for triglyceride levels.

[3] = Lipoprotein (VLDL, LDL, HDL) levels, high fat fed mice, 6 week study; conditions: for HDL Percent Inhibition / LDL Percent Inhibition / VLDL Percent Inhibition: negative = increase
Description: as §1
Male C57BL/6 mice (n=8) receiving a high fat diet (60% kcal fat) were evaluated over the course of 6 weeks for the effects of ISIS 147764 on lipoprotein (VLDL, LDL and HDL) levels. Control animals received saline treatment (50 mg/kg). Mice were dosed intraperitoneally every three days (twice a week), after fasting overnight, with 5, 25, 50 mg/kg ISIS 147764 (SEQ ID No: 109) or saline (50 mg/kg) for six weeks.
Values in the table are expressed as percent inhibition and are normalized to the saline control. Negative values indicate an observed increase in lipoprotein levels.

[4] = Liver enzyme levels in ApoE knockout mice; conditions: for Liver Enzyme Levels AST: Control 55; for Liver Enzyme Levels ALT: Control 56
Excerpt: Female ApoE knockout mice ranged in age from 5 to 7 weeks and were placed on a normal diet for 2 weeks before study initiation. ApoE knockout mice were then fed ad libitum a 60% fat diet, with 0.15% added cholesterol to induce dyslipidemia and obesity. […]
At study termination and forty eight hours after the final injections, animals were sacrificed and evaluated for target mRNA levels in liver by RT-PCR methods verified by Northern Blot analysis, glucose levels, cholesterol and lipid levels by HPLC separation methods and triglyceride and liver enzyme levels (perfomed by LabCorp Preclinical Services; San Diego, Calif.). Data are normalized to saline controls.

GTCCCTGAAGATGTCAATGC (2'-MOE gapmer with phosphorothioates, pattern not given here) [ISIS 147764, 2′-MOE gapmer phosphorothioate oligonucleotide to mouse apolipoprotein B]
Liver Enzymes ALT Percent Change ([1]; high fat fed C57BL/6 mice): Slight | Liver Enzymes AST Percent Change ([1]; high fat fed C57BL/6 mice): Slight | Liver Enzymes ALT Percent Change ([1]; lean C57BL/6 mice): No | Liver Enzymes AST Percent Change ([1]; lean C57BL/6 mice): Slight | changes in liver enzyme levels ([1]; lean and high fat fed C57BL/6 mice, 50 mg/kg): No significant changes | reduction of target mRNA levels in liver (apolipoprotein B mRNA; 5 mg/kg i.p. every three days): 15% | reduction of target mRNA levels in liver (apolipoprotein B mRNA; 25 mg/kg i.p. every three days): 75% | reduction of target mRNA levels in liver (apolipoprotein B mRNA; 50 mg/kg i.p. every three days): 88% | Percent Inhibition of cholesterol levels ([2]; 5 mg/kg, 0 weeks): 0% | Percent Inhibition of cholesterol levels ([2]; 5 mg/kg, 2 weeks): 5% | Percent Inhibition of cholesterol levels ([2]; 5 mg/kg, 6 weeks): 10% | triglycerides ([2]; 5 mg/kg): 125 mg/dL | serum cholesterol ([2]; 5 mg/kg): 225 mg/dL | Percent Inhibition of cholesterol levels ([2]; 25 mg/kg, 0 weeks): 0% | Percent Inhibition of cholesterol levels ([2]; 25 mg/kg, 2 weeks): 12% | Percent Inhibition of cholesterol levels ([2]; 25 mg/kg, 6 weeks): 45% | triglycerides ([2]; 25 mg/kg): 150 mg/dL | serum cholesterol ([2]; 25 mg/kg): 125 mg/dL | Percent Inhibition of cholesterol levels ([2]; 50 mg/kg, 0 weeks): 0% | Percent Inhibition of cholesterol levels ([2]; 50 mg/kg, 2 weeks): 20% | Percent Inhibition of cholesterol levels ([2]; 50 mg/kg, 6 weeks): 55% | triglycerides ([2]; 50 mg/kg): 85 mg/dL | serum cholesterol ([2]; 50 mg/kg): 110 mg/dL | HDL Percent Inhibition ([3]; 5 mg/kg, 0 weeks): 0% | LDL Percent Inhibition ([3]; 5 mg/kg, 0 weeks): 2% | VLDL Percent Inhibition ([3]; 5 mg/kg, 0 weeks): 0% | HDL Percent Inhibition ([3]; 5 mg/kg, 2 weeks): 5% | LDL Percent Inhibition ([3]; 5 mg/kg, 2 weeks): −30% | VLDL Percent Inhibition ([3]; 5 mg/kg, 2 weeks): 25% | HDL Percent Inhibition ([3]; 5 mg/kg, 6 weeks): 10% | LDL Percent Inhibition ([3]; 5 mg/kg, 6 weeks): −10% | VLDL Percent Inhibition ([3]; 5 mg/kg, 6 weeks): 10% | HDL Percent Inhibition ([3]; 25 mg/kg, 0 weeks): 0% | LDL Percent Inhibition ([3]; 25 mg/kg, 0 weeks): 0% | VLDL Percent Inhibition ([3]; 25 mg/kg, 0 weeks): 0% | HDL Percent Inhibition ([3]; 25 mg/kg, 2 weeks): 10% | LDL Percent Inhibition ([3]; 25 mg/kg, 2 weeks): 10% | VLDL Percent Inhibition ([3]; 25 mg/kg, 2 weeks): 30% | HDL Percent Inhibition ([3]; 25 mg/kg, 6 weeks): 45% | LDL Percent Inhibition ([3]; 25 mg/kg, 6 weeks): 55% | VLDL Percent Inhibition ([3]; 25 mg/kg, 6 weeks): −30% | lowering all categories of serum lipoproteins investigated, compared with atorvastatin ([3]; 50 mg/kg): to a greater extent than atorvastatin | HDL Percent Inhibition ([3]; 50 mg/kg, 0 weeks): 0% | LDL Percent Inhibition ([3]; 50 mg/kg, 0 weeks): 0% | VLDL Percent Inhibition ([3]; 50 mg/kg, 0 weeks): 0% | HDL Percent Inhibition ([3]; 50 mg/kg, 2 weeks): 10% | LDL Percent Inhibition ([3]; 50 mg/kg, 2 weeks): 40% | VLDL Percent Inhibition ([3]; 50 mg/kg, 2 weeks): 40% | HDL Percent Inhibition ([3]; 50 mg/kg, 6 weeks): 50% | LDL Percent Inhibition ([3]; 50 mg/kg, 6 weeks): 90% | VLDL Percent Inhibition ([3]; 50 mg/kg, 6 weeks): 15% | changes in liver enzyme levels [4]: No significant changes | Liver Enzyme Levels AST ([4]; 5 mg/kg): 50 IU/L | Liver Enzyme Levels ALT ([4]; 5 mg/kg): 48 IU/L | Liver Enzyme Levels AST ([4]; 25 mg/kg): 60 IU/L | Liver Enzyme Levels ALT ([4]; 25 mg/kg): 59 IU/L | Liver Enzyme Levels AST ([4]; 50 mg/kg): 85 IU/L | Liver Enzyme Levels ALT ([4]; 50 mg/kg): 87 IU/L

Reference: patent US8735364B2, “Antisense modulation of apolipoprotein B expression” (Genzyme Corporation, priority 2001, dated 2014)
